In US10745382B2 (BRISTOL-MYERS SQUIBB COMPANY, priority 2015, dated 2020):
pIC50: −log10 of the molar value. Like-named read-outs stand apart in the source and are kept apart here.

Biological target: T1, PD-1/PD-L1 (Homo sapiens, UniProt Q9NZQ7)
T1 construct: made in house; host or cells: HEK293T
Assay: PD-1/PD-L1 Homogenous Time-Resolved Fluorescence (HTRF) binding assay
Details: PD-L1-His 10 nM, PD-1-Ig 20 nM, read-out: Range or IC50
How it was run: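 Read-out is time-resolved FRET between europium cryptate-labelled anti-Ig (1 nM final) and APC-labelled anti-His (20 nM final), both dispensed onto the binding mix. Assay buffer: dPBS containing 0.1% bovine serum albumin and 0.05% Tween-20.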

T1 sequence (Q9NZQ7 with tags, fused parts or gaps): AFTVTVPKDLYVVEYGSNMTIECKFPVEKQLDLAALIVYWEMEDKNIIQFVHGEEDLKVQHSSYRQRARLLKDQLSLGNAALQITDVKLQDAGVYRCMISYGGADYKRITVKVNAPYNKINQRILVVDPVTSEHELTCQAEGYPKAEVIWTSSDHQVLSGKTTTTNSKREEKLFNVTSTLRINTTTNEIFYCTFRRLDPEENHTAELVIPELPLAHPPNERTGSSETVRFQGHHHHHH

| Structure (SMILES) | pIC50 (value given as range class) | pIC50 (numeric IC50) |
| --- | --- | --- |
| CC(CO)(CO)NCc1cc(Cl)c(OCc2cccc(-c3cccc(OCCCN4CC[C@@H](O)C4)c3Cl)c2Cl)cc1OCc1cccc(C#N)c1 [Example 2059, (R)-3-((4-chloro-5-((2,2′-dichloro-3′-(3-(3-hydroxypyrrolidin-1-yl)propoxy)-[1,1′-biphenyl]-3-yl)methoxy)-2-(((1,3-dihydroxy-2-methylpropan-2-yl)amino)methyl)phenoxy)methyl)benzonitrile] | 8.00 to 9.68 |  |
| Cc1c(COc2cc(OCc3cncc(C#N)c3)c(CN3CCCC[C@H]3C(=O)O)cc2Cl)cccc1-c1cccc(OCCCN2CCN(CCO)CC2)c1C [Example 2211, (2S)-1-(5-chloro-2-((5-cyanopyridin-3-yl)methoxy)-4-((3′-(3-(4-(2-hydroxyethyl)piperazin-1-yl)propoxy)-2,2′-dimethylbiphenyl-3-yl)methoxy)benzyl)piperidine-2-carboxylic Acid] | 8.00 to 9.68 |  |
| CNC(=O)c1cccc(-c2cccc(COc3cc(OCc4cncc(C#N)c4)c(CN4CCC[C@H]4C(=O)O)cc3Cl)c2C)c1C [Example 4012, (5-chloro-2-((5-cyanopyridin-3-yl)methoxy)-4-((2,2′-dimethyl-3′-(methylcarbamoyl)-[1,1′-biphenyl]-3-yl)methoxy)benzyl)-L-proline] | 7.00 to 8.00 |  |
| Cc1c(CCCCN2CC[C@@H](O)C2)cccc1-c1cccc(COc2cc(OCc3cncc(C#N)c3)c(CN3CCNC[C@H]3C(=O)O)cc2Cl)c1C [Example 4070, (S)-1-(5-chloro-2-((5-cyanopyridin-3-yl)methoxy)-4-((3′-(4-((R)-3-hydroxypyrrolidin-1-yl)butyl)-2,2′-dimethyl-[1,1′-biphenyl]-3-yl)methoxy)benzyl)piperazine-2-carboxylic Acid] | 8.00 to 9.68 |  |
| CCNC(=O)c1cccc(-c2cccc(COc3cc(OCc4cncc(C#N)c4)c(CN4CCC[C@H]4C(=O)O)cc3Cl)c2C)c1C [Example 4007, (5-chloro-2-((5-cyanopyridin-3-yl)methoxy)-4-((3′-(ethylcarbamoyl)-2,2′-dimethyl-[1,1′-biphenyl]-3-yl)methoxy)benzyl)-L-proline] | 5.70 to 7.00 |  |
| CCN(CC)C(=O)C1CCCN(CCCOc2cccc(-c3cccc(COc4cc(OCc5cncc(C#N)c5)c(CN5CCCC[C@H]5C(=O)O)cc4Cl)c3C)c2C)C1 (stereo partly drawn) [Example 2208, (2S)-1-(5-chloro-2-((5-cyanopyridin-3-yl)methoxy)-4-((3′-(3-(3-(diethylcarbamoyl)piperidin-1-yl)propoxy)-2,2′-dimethylbiphenyl-3-yl)methoxy)benzyl)piperidine-2-carboxylic Acid] | 8.00 to 9.68 |  |
| Cc1c(COc2cc(OCc3cncc(C#N)c3)c(CN3CCCC[C@H]3C(=O)O)cc2Cl)cccc1-c1cccc(OCCCN(C)C)c1C [Example 2253, (2S)-1-(5-chloro-2-((5-cyanopyridin-3-yl)methoxy)-4-((3′-(3-(dimethylamino)propoxy)-2,2′-dimethylbiphenyl-3-yl)methoxy)benzyl)piperidine-2-carboxylic Acid] |  | 8.28 |
| Cc1c(COc2cc(OCc3cncc(C#N)c3)c(CN3CCCC[C@H]3C(=O)O)cc2Cl)cccc1-c1cccc(OCCCN2CCC(CO)CC2)c1C [Example 2214, (2S)-1-(5-chloro-2-((5-cyanopyridin-3-yl)methoxy)-4-((3′-(3-(4-(hydroxymethyl)piperidin-1-yl)propoxy)-2,2′-dimethylbiphenyl-3-yl)methoxy)benzyl)piperidine-2-carboxylic Acid] | 8.00 to 9.68 |  |
| CNC(=O)c1cccc(-c2cccc(COc3cc(OCc4cncc(C#N)c4)c(CN4C[C@H](O)C[C@H]4C(=O)O)cc3Cl)c2C)c1C [Example 4013, (2S,4R)-1-(5-chloro-2-((5-cyanopyridin-3-yl)methoxy)-4-((2,2′-dimethyl-3′-(methylcarbamoyl)-[1,1′-biphenyl]-3-yl)methoxy)benzyl)-4-hydroxypyrrolidine-2-carboxylic Acid] | 7.00 to 8.00 |  |
| Cc1c(COc2cc(OCc3cncc(C#N)c3)c(CNC(C)(CO)CO)cc2Cl)cccc1-c1cccc(OCC(CO)(CO)CO)c1Cl [Example 2085, 5-((4-chloro-5-((2′-chloro-3′-(3-hydroxy-2,2-bis(hydroxymethyl)propoxy)-2-methyl-[1,1′-biphenyl]-3-yl)methoxy)-2-(((1,3-dihydroxy-2-methylpropan-2-yl)amino)methyl)phenoxy)methyl)nicotinonitrile] | 8.00 to 9.68 |  |

Second part, the compound after the results:

| pIC50 (value given as range class) | pIC50 (numeric IC50) | Structure (SMILES) |
| --- | --- | --- |
| 8.00 to 9.68 |  | Cc1c(COc2cc(OCc3cncc(C#N)c3)c(CN[C@@](C)(CO)C(=O)O)cc2Cl)cccc1-c1cccc(OCCCN2CCCCC2)c1C [Example 2272, (S)-2-((5-chloro-2-((5-cyanopyridin-3-yl)methoxy)-4-((2,2′-dimethyl-3′-(3-(piperidin-1-yl)propoxy)-[1,1′-biphenyl]-3-yl)methoxy)benzyl)amino)-3-hydroxy-2-methylpropanoic Acid] |
| 8.00 to 9.68 |  | Cc1c(COc2cc(OCc3cncc(C#N)c3)c(CNC(C)(CO)CO)cc2Cl)cccc1-c1cccc(OCCCN2CCC[C@@H](CO)C2)c1C [Example 2289, (R)-5-((4-chloro-2-(((1,3-dihydroxy-2-methylpropan-2-yl)amino)methyl)-5-((3′-(3-(3-(hydroxymethyl)piperidin-1-yl)propoxy)-2,2′-dimethyl-[1,1′-biphenyl]-3-yl)methoxy)phenoxy)methyl)nicotinonitrile] |
| 8.00 to 9.68 |  | Cc1c(COc2cc(OCc3cncc(C#N)c3)c(CN[C@@](C)(CO)C(=O)O)cc2Cl)cccc1-c1cccc(OCCCN2CC(=O)NC(=O)C2)c1C [Example 2327, (S)-2-((5-chloro-2-((5-cyanopyridin-3-yl)methoxy)-4-((3′-(3-(3,5-dioxopiperazin-1-yl)propoxy)-2,2′-dimethyl-[1,1′-biphenyl]-3-yl)methoxy)benzyl)amino)-3-hydroxy-2-methylpropanoic Acid] |
| 8.00 to 9.68 |  | C=CCOc1cc(OCc2cccc(-c3cccc(OCCCN4CC[C@@H](O)C4)c3C)c2Cl)c(Cl)cc1CNC(CO)CO [Example 2313, (R)-2-((2-(allyloxy)-5-chloro-4-((2-chloro-3′-(3-(3-hydroxypyrrolidin-1-yl)propoxy)-2′-methyl-[1,1′-biphenyl]-3-yl)methoxy)benzyl)amino)propane-1,3-diol] |
| 8.00 to 9.68 |  | Cc1c(COc2cc(OCc3cncc(C#N)c3)c(CN(C)[C@@](C)(CO)C(=O)O)cc2Cl)cccc1-c1cccc(OCCCN2CCC(F)(F)C2)c1C [Example 4115, (S)-2-((5-chloro-2-((5-cyanopyridin-3-yl)methoxy)-4-((3′-(3-(3,3-difluoropyrrolidin-1-yl)propoxy)-2,2′-dimethyl-[1,1′-biphenyl]-3-yl)methoxy)benzyl)(methyl)amino)-3-hydroxy-2-methylpropanoic Acid] |
| 8.00 to 9.68 |  | Cc1c(COc2cc(OCc3cncc(C#N)c3)c(CN3CCCC[C@H]3C(=O)O)cc2Cl)cccc1-c1cccc(OCCCNCC(O)CO)c1C (stereo partly drawn) [Example 2235, (2S)-1-(5-chloro-2-((5-cyanopyridin-3-yl)methoxy)-4-((3′-(3-(2,3-dihydroxypropylamino)propoxy)-2,2′-dimethylbiphenyl-3-yl)methoxy)benzyl)piperidine-2-carboxylic Acid] |
| 8.00 to 9.68 |  | Cc1c(OCCCN2CC[C@@H](O)C2)cccc1-c1cccc(COc2cc(OCC(=O)N(C)C)c(CNC(CO)CO)cc2Cl)c1Cl [Example 2317, (R)-2-(4-chloro-5-((2-chloro-3′-(3-(3-hydroxypyrrolidin-1-yl)propoxy)-2′-methyl-[1,1′-biphenyl]-3-yl)methoxy)-2-(((1,3-dihydroxypropan-2-yl)amino)methyl)phenoxy)-N,N-dimethylacetamide] |
| 8.00 to 9.68 |  | Cc1c(COc2cc(OCc3cncc(C#N)c3)c(CN[C@@](C)(CO)C(=O)O)cc2Cl)cccc1-c1cccc(OCCCN2CCC[C@H](O)C2)c1C [Example 2262, (2S)-2-(5-chloro-2-((5-cyanopyridin-3-yl)methoxy)-4-((3′-(3-((S)-3-hydroxypiperidin-1-yl)propoxy)-2,2′-dimethylbiphenyl-3-yl)methoxy)benzylamino)-3-hydroxy-2-methylpropanoic Acid] |
| 8.00 to 9.68 |  | Cc1cc(OCc2cccc(-c3cccc(OCCCN4CC[C@@H](O)C4)c3C)c2C)cc(OCc2cncc(C#N)c2)c1CN1CCCC[C@H]1C(=O)O [Example 4086, (S)-1-(2-((5-cyanopyridin-3-yl)methoxy)-4-((3′-(3-((R)-3-hydroxypyrrolidin-1-yl)propoxy)-2,2′-dimethyl-[1,1′-biphenyl]-3-yl)methoxy)-6-methylbenzyl)piperidine-2-carboxylic Acid] |
| 8.00 to 9.68 |  | Cc1c(COc2cc(OCc3cncc(C#N)c3)c(CN[C@@](C)(CO)C(=O)O)cc2Cl)cccc1-c1cccc(OCCCN2CCC(O)C2)c1C (stereo in doubt) [Example 3003, (S)-2-((5-chloro-2-((5-cyanopyridin-3-yl)methoxy)-4-((3′-(3-((R)-3-hydroxypyrrolidin-1-yl)propoxy)-2,2′-dimethyl-[1,1′-biphenyl]-3-yl)methoxy)benzyl)amino)-3-hydroxy-2-methylpropanoic Acid] |
| 8.00 to 9.68 |  | Cc1c(COc2cc(OCc3cncc(C#N)c3)c(CNC(CO)CO)c(C)c2Cl)cccc1-c1cccc(OCCCN2CC[C@@H](O)C2)c1C [Example 4102, (R)-5-((4-chloro-2-(((1,3-dihydroxypropan-2-yl)amino)methyl)-5-((3′-(3-(3-hydroxypyrrolidin-1-yl)propoxy)-2,2′-dimethyl-[1,1′-biphenyl]-3-yl)methoxy)-3-methylphenoxy)methyl)nicotinonitrile] |
| 8.00 to 9.68 |  | Cc1c(COc2cc(OCc3cncc(C#N)c3)c(CNCCCN(C)C)cc2Cl)cccc1-c1cccc(OCCCN2CCC(O)C2)c1 (stereo in doubt) [Example 3001, (R)-5-((4-chloro-2-(((3-(dimethylamino)propyl)amino)methyl)-5-((3′-(3-(3-hydroxypyrrolidin-1-yl)propoxy)-2-methyl-[1,1′-biphenyl]-3-yl)methoxy)phenoxy)methyl)nicotinonitrile] |
